Measurements reported in PMC6458850, “CXXC5 mediates growth plate senescence and is a target for enhancement of longitudinal bone growth” (Life Science Alliance, 2019).

Target: T1, CXXC5–DVL interaction (Homo sapiens, UniProt O14640)
T1 sequence (O14640 251-340 limits assumed): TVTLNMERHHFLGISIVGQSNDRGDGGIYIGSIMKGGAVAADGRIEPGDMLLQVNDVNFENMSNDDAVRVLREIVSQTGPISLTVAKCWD
Assay: In vitro CXXC5–DVL binding assay (FITC-tagged PTD-DBMP on DVL PDZ domain)
Details: compound 30 μM; fluorescent intensity normalized to DMSO-treated control
Procedure: After the addition of 10 μM FITC-tagged PTD-DBMP to each well, each compound in the chemical library or control (DMSO) was treated to the well at a final concentration of 30 μM. The fluorescence intensity was measured using a Fluorstar Optima microplate reader (BGM Lab Technologies, Ortenberg, Germany). The binding values were calculated as a percent ratio of the fluorescent intensity normalized to the DMSO-treated control.

In the case of O=C1Nc2ccccc2/C1=C1/Nc2ccccc2/C1=N\O [Compound 12, indirubin-3′-oxime, reference compound], the “CXXC5-DVL interaction (%)” value is reported as 7.65%.
